Residues, ends and D or L forms follow the SMILES beside them. *: point of attachment. Cbz = O=C(OCc1ccccc1)*
Assays:
[1] = test system: p21/WAF1 levels in IM9, Ramos, BL2 cells; assay: Western blot of protein levels after SAHA treatment; type: cell-based, human; details: all cells, 1 μM, 24 h
Method: (§1) IM9, BL2 and Ramos cells were plated at 3×10^6 cells per well in a 6-well dish and treated with 1 μM suberoylanilide hydroxamic acid (SAHA), which is a reversible inhibitor of class I and class II histone deacetylases (HDACs), for 24 hours. Equal amount of DMSO was added to cells as a control. Cells were lysed and subjected to SDS-PAGE/Western blot analyses.
(§2) To test whether the reduction in mRNA NMT2 was due to chromatin silencing, we treated “normal” B cells (IM9) and malignant BL cells with suberoylanilide hydroxamic acid (SAHA) (also named vorinostat), a class I and class II histone deacetylase inhibitor, for 24 hours and monitored the levels of NMT1 and NMT2 by western blot. In particular, “Normal” B cells (IM9) and malignant BL cells (Ramos, BL2) treated with 1 μM SAHA (HDAC class I/II inhibitor) for 24 h. Cells were then lysed, subjected to SDS-PAGE and western blotting was performed with NMT1, NMT2, p21/WAF1 and GAPDH antibodies.

[2] = test system: NMT1 levels in IM9, Ramos, BL2 cells; assay: as above; type: cell-based, human; details: 1 μM, 24 h
Method: as §1, §2

[3] = test system: NMT2 levels in BL cells (Ramos, BL2); assay: as above; type: cell-based, human; details: 1 μM, 24 h
Method: as §1, §2

[4] = test system: Mcl-1 levels in IM9, KMH2, Ramos, BL2 cells; assay: Western blot of protein levels after MG-132 treatment; type: cell-based, human; details: all cell types, 10 μM, 5 h
Method: (§3) IM9, KMH2, BL2 and Ramos cells were plated (3×10^6 cells per well in a 6-well dish) and treated with 10 μM MG-132 for 5 hours. Equal amount of DMSO was added to the control samples. Cells were then lysed and subjected to SDS-PAGE/Western blot analyses.
(§4) In this example, in FIG. 26, it is shown that proteosomal degradation is not the cause of NMT2 depletion in BL cells. In these experiments, “Normal” immortalized B lymphocytes (IM9) and malignant B lymphoma cells [Hodgkin's lymphoma (KMH2) and BL (Ramos, BL2)] treated with 10 μM of proteosomal inhibitor (MG-132) for 5 h. Western blotting was performed on cell lysates to monitor levels of NMT1, NMT2, Mcl-1, and GAPDH.
(§5) To investigate whether NMT2's degradation was increased as a result of a destabilizing mutation or the presence of an unknown factor that could destabilize NMT2 in cancer cells, we treated normal and malignant lymphocytes with the proteosomal degradation inhibitor MG-132 for 5 h. Cell lysates were subjected to western blotting to analyze the presence of NMT1, NMT2 and myeloid cell leukemia-1 protein (Mcl-1), which was used as a control to check the effectiveness of MG-132 since it is subject to proteosomal degradation.

[5] = test system: NMT2 levels in BL cells (Ramos, BL2); assay: as above; type: cell-based, human; details: 10 μM, 5 h
Method: as §3, §4, §5

[6] = Intrinsic clearance Cli, human; type: in vitro ADME
[7] = Intrinsic clearance Cli, mouse; type: in vitro ADME
[8] = test system: myristoylation in Ramos cells; assay: Inhibition of myristoylation, alkynyl-myristate labeling and click chemistry; type: cell-based, human; details: 2 h treatment
Method: (§6) Cells were labeled with 100 to 25 μM ω-alkynyl myristic acid 30 min prior to harvesting the cells and lysed in 0.1% SDS-RIPA-HEPES buffer. Protein (50-30 μg) from the resulting cell lysates were reacted with 100 μM azido-biotin using click chemistry and processed as described previously (Yap et al., 2010). Briefly, cells were starved of fatty acids by incubating in media (RPMI or DMEM) which were supplemented with 5% dextran-coated charcoal-treated FBS (DCC-FBS) for 1 h prior to labeling. Next, ω-alkynyl-myristic acid was dissolved in DMSO to generate 25 or 100 mM stock solutions. Typically, the cellular uptake of ω-alkynyl myristic acid typically was improved with saponification and conjugation to BSA. Therefore, prior to labeling, ω-alkynyl myristic acid was saponified with 20% molar excess of potassium hydroxide at 65° C. for 15 min. Next, serum-free culture media (pre-warmed) containing 20% fatty acid-free BSA at 37° C. was added to the saponified ω-alkynyl myristic acid and incubated for an additional 15 min at 37° C.
Subsequently, cells deprived of fatty acids were washed once with warm PBS and incubated in fresh RPMI or DMEM without any supplements. […]
(§7) In FIG. 9 E, the minimal dose of DDD86481 required to inhibit myristoylation in IM-9, BL2 and Ramos cell lines, was determined. […]

[9] = test system: myristoylation in BL2 cells; assay: as above; type: cell-based, human
Method: as §6
(§8) Subsequently, cells deprived of fatty acids were washed once with warm PBS and incubated in fresh RPMI or DMEM without any supplements. Next, the appropriate volume of 20× fatty acid-BSA conjugate in serum-free media was added to the cells, to ensure that the final concentration of BSA was 1% and Q-alkynyl myristic acid was at the indicated concentration (25 μM or 100 μM) for each respective experiment. DMSO or unlabeled fatty acids conjugated to BSA were used as controls for the experiments performed. Cells were labeled with ω-alkynyl myristic acid for 30 min at 37° C. in a 5% CO2 humidified incubator prior to harvesting. Cells were harvested in 0.1% SDS-RIPA-HEPES buffer that was supplemented with 1× complete protease inhibitor (EDTA-free).
(§9) After labeling cells with ω-alkynyl myristic acid, the resulting lysates were subjected to click chemistry with azido-biotin to enable the detection of the myristoylated proteins by ECL as described previously (Yap et al., 2010). Typically, cell lysates (30-50 μg of protein) were adjusted to contain 1% SDS and incubated with 100 μM Tris-(benzyltriazolylmethyl)amine (TBTA), 1 mM CuSO4, 1 mM Tris-carboxyethylphosphine (TCEP), and 100 μM azido-biotin at 37° C. for 30 min in darkness, in order for the click reaction to proceed. Next, 10 volumes of ice-cold acetone was added to stop the click reaction and proteins were precipitated at −20° C. overnight. Subsequently, the acetone precipitated proteins were centrifuged at 16,000 g for 10 min, resuspended in 1×SDS-PAGE sample buffer with 20 mM DTT. […]
as §7

[10] = test system: myristoylation in IM-9 cells; assay: as above; type: cell-based, human
Method: as §6, §8, §9, §7

Fu plasma, mouse = type: in vitro ADME
B:B Ratio = type: in vivo; details: brain / blood
[11] = Mouse PO pharmacokinetics 10 mg/kg; details: in vivo, PO 10 mg/kg, [ ] = range
[12] = Mouse IV pharmacokinetics; type: in vivo; details: whole blood, [ ] = range
[13] = Intrinsic clearance Cli, rat; type: in vitro ADME
[14] = test system: "Normal" immortalized B lymphocytes (IM9); assay: Induction of apoptosis, PARP-1 and caspase-3 cleavage by western blotting; type: cell-based, human; details: IM9, 72 h
Method: (§10) “Normal” immortalized B lymphocytes (IM9), KMH2 (Hodgkin's lymphoma) and BL (BL2 and Ramos) cells were incubated with increasing concentrations (nM) of DDD86481 and monitored the cleavage of poly-ADP-ribose polymerase-1 (PARP-1) and caspase-3 after the 72 h time point. Western blotting was performed on cell lysates to monitor the cleavage or PARP-1 and caspase-3 as well as the presence of GAPDH as loading control (composite gels).

BL (BL2 and Ramos) cells = assay: as above; type: cell-based, human; details: BL cell lines, 72 h
Method: as §10

[15] = test system: KMH2 (Hodgkin's lymphoma) cells; assay: as above; type: cell-based, human; details: KMH2, 72 h
Method: as §10

[16] = test system: KMH2 (Hodgkin's lymphoma) cells; assay: MTS cell viability assay; type: cell-based; details: Homo sapiens, KM-H2, 72 h
Method: (§11) […]. The drugs were dissolved in DMSO to make 100× stock solutions for each concentration tested, so that the final volume of DMSO in each well was 1%. MTS [(3-(4,5-dimethylthiazol-2-yl)-5-(3-carboxymethoxyphenyl)-2-(4-sulfophenyl)-2H-tetrazolium)] assay was used to measure the cytotoxicity of the drug (Cory et al., 1991).
(§12) In FIG. 9, Panel B, DDD86481 was used to treat BL cells and control cell lines [IM9 (“normal” B lymphocyte) and KMH2 (HL cell line) that expresses both NMTs]. […]. The EC50 data are summarized as follows.

[17] = test system: IM-9 ("normal" EBV immortalized B cell); assay: MTS cell viability assay; type: cell-based; details: Homo sapiens
Method: as §11, §12

[18] = test system: BL-2 (Burkitt's lymphoma) cells; assay: MTS cell viability assay; type: cell-based, human
Method: as §11, §12

[19] = test system: Ramos (Burkitt's lymphoma) cells; assay: MTS cell viability assay; type: cell-based, human
Method: as §11, §12

O=C(CCCCCCC(=O)Nc1ccccc1)NO [SAHA, suberoylanilide hydroxamic acid]
p21/WAF1 levels [1]: increased p21/WAF1 levels
NMT1 levels [2]: remained relatively unchanged
NMT2 levels [3]: increased NMT2 levels

CC(C)C[C@@H](C=O)NC(=O)[C@H](CC(C)C)NC(=O)[C@H](CC(C)C)NC(=O)OCc1ccccc1 [MG-132] (Cbz-Leu-Leu-Leu-aldehyde)
Mcl-1 levels [4]: increased levels of Mcl-1
NMT2 levels [5]: did not increase

Cc1c(NS(=O)(=O)c2c(Cl)cc(-c3ccnc(N4CCNCC4)c3)cc2Cl)c(CC(C)C)nn1C [DDD86481]
Cli Human [6]: 0.7 mL/min/g
Cli Mouse [7]: <0.5 mL/min/g
minimal dose at which incorporation of alkyne-myristate label decreases [8]: 50 nM
inhibition of myristoylation ([9]; BL2, 1 μM, after one hour of treatment): nearly complete inhibition of myristoylation
minimal dose at which incorporation of alkyne-myristate label decreases ([9]; BL-2, 2 h treatment): 50 nM
inhibition of myristoylation ([10]; IM-9, 1 μM, after one hour of treatment): nearly complete inhibition of myristoylation
minimal dose at which incorporation of alkyne-myristate label decreases ([10]; IM-9, 2 h treatment): 100 nM
fraction unbound (Fu plasma, mouse): 0.067
Kp (B:B Ratio): 0.04
Cmax [11]: 11200 ng/mL
Tmax [11]: 2 h
half-life [11]: 5.7 h
half-life [12]: 1.5 h
Vd ([12]; read-out: Vss): 0.4 L/kg
Cli Rat [13]: 1.0 mL/min/g
PARP-1 and caspase-3 cleavage [14]: No PARP-1 or caspase-3 cleavage was observed
PARP-1 and caspase-3 cleavage (BL (BL2 and Ramos) cells): occurred in a dose-dependent fashion
PARP-1 cleavage [15]: observed at higher concentrations, although it was minimal
EC50 [16]: 12600 nM
EC90 ([17]; IM-9, IM9 cells, calculated from FIG. 9B): 134000 nM
EC50 ([17]; IM-9 cells, 72 h, MTS): 2200 nM
times more sensitive than cells expressing both NMTs ([18]; BL-2 and Ramos vs immortalized "normal" B cells or KMH2, MTS): 15-72 times
EC90 ([18]; Homo sapiens, BL2): 210 nM
EC50 ([18]; Homo sapiens, BL2, 72 h): 58 nM
EC90 ([19]; Homo sapiens, Ramos): 400 nM
EC50 ([19]; Homo sapiens, Ramos, 72 h): 42 nM
factor by which cancer cells are preferentially killed ([19]; ratios of the EC50's and EC90's, normal B cell line vs Burkitt lymphoma cell lines): > 300 fold
